From ChEMBL document CHEMBL5512637, “Development of Membrane-Targeting Fluorescent 2-Phenyl-1H-phenanthro[9,10-d]imidazole-Antimicrobial Peptide Mimic Conjugates against Methicillin-Resistant Staphylococcus aureus” (J Med Chem, 2024)
Values after ≈ are worked out from the molar mass of the structure shown.

Assays:
Staphylococcus aureus [1] = test: Antibacterial activity against Staphylococcus aureus ATCC 29213 incubated for 16 to 18 hrs CLSI based by microbroth dilution assay; format: functional; details: time 16-18 hrs
Escherichia coli = test: Antibacterial activity against Escherichia coli ATCC 25922 incubated for 16 to 18 hrs CLSI based by microbroth dilution assay; format: functional; details: time 16-18 hrs
Staphylococcus aureus [2] = test: Antibacterial activity against methicillin-resistant Staphylococcus aureus clinical isolate M-1 incubated for 16 to 18 hrs CLSI based by microbroth dilution assay; format: functional; details: time 16-18 hrs
Staphylococcus aureus [3] = test: Antibacterial activity against methicillin-resistant Staphylococcus aureus clinical isolate M-2 incubated for 16 to 18 hrs CLSI based by microbroth dilution assay; format: functional; details: time 16-18 hrs
Staphylococcus aureus [4] = test: Antibacterial activity against methicillin-resistant Staphylococcus aureus clinical isolate M-3 incubated for 16 to 18 hrs CLSI based by microbroth dilution assay; format: functional; details: time 16-18 hrs
Staphylococcus aureus [5] = test: Antibacterial activity against methicillin-resistant Staphylococcus aureus clinical isolate M-4 incubated for 16 to 18 hrs CLSI based by microbroth dilution assay; format: functional; details: time 16-18 hrs
Staphylococcus aureus [6] = test: Antibacterial activity against methicillin-resistant Staphylococcus aureus clinical isolate M-5 incubated for 16 to 18 hrs CLSI based by microbroth dilution assay; format: functional; details: time 16-18 hrs
Staphylococcus aureus [7] = test: Antibacterial activity against methicillin-resistant Staphylococcus aureus clinical isolate M-6 incubated for 16 to 18 hrs CLSI based by microbroth dilution assay; format: functional; details: time 16-18 hrs
Staphylococcus aureus [8] = test: Antibacterial activity against methicillin-resistant Staphylococcus aureus clinical isolate M-7 incubated for 16 to 18 hrs CLSI based by microbroth dilution assay; format: functional; details: time 16-18 hrs
Staphylococcus aureus [9] = test: Antibacterial activity against methicillin-resistant Staphylococcus aureus clinical isolate M-8 incubated for 16 to 18 hrs CLSI based by microbroth dilution assay; format: functional; details: time 16-18 hrs
Staphylococcus aureus [10] = test: Antibacterial activity against methicillin-resistant Staphylococcus aureus clinical isolate M-9 incubated for 16 to 18 hrs CLSI based by microbroth dilution assay; format: functional; details: time 16-18 hrs
Staphylococcus aureus [11] = test: Antibacterial activity against methicillin-resistant Staphylococcus aureus clinical isolate M-10 incubated for 16 to 18 hrs CLSI based by microbroth dilution assay; format: functional; details: time 16-18 hrs
[12] = Hemolytic activity in sheep erythrocytes incubated for 1 hr by absorbance based assay; format: toxicity, cell-based, Ovis aries, Erythrocyte
[13] = Selectivity index, ratio of HC50 for sheep erythrocytes to MIC for Staphylococcus aureus ATCC 29213; format: toxicity; details: read-out: Selectivity Index

Structure (SMILES)	MIC (Staphylococcus aureus [1])	MIC (Escherichia coli)	MIC (Staphylococcus aureus [2])	MIC (Staphylococcus aureus [3])	MIC (Staphylococcus aureus [4])	MIC (Staphylococcus aureus [5])	MIC (Staphylococcus aureus [6])	MIC (Staphylococcus aureus [7])	MIC (Staphylococcus aureus [8])	MIC (Staphylococcus aureus [9])	MIC (Staphylococcus aureus [10])	MIC (Staphylococcus aureus [11])	HC50 at 1 h [12]	selectivity ratio [13]
CCNC(=O)C[N+](C)(C)CCCCn1c(-c2ccc(N(C)C)cc2)nc2c3ccccc3c3ccccc3c21.[Br-]	16 µg/mL	> 128 µg/mL	16 µg/mL	16 µg/mL	16 µg/mL	16 µg/mL	16 µg/mL	16 µg/mL	16 µg/mL	32 µg/mL	16 µg/mL	16 µg/mL	> 640 µg/mL	> 40
CCCCN(CCCC)C(=O)C[N+](C)(C)CCCn1c(-c2ccc(N(C)C)cc2)nc2c3ccccc3c3ccccc3c21.[Br-]	8 µg/mL	64 µg/mL	4 µg/mL	4 µg/mL	4 µg/mL	4 µg/mL	4 µg/mL	4 µg/mL	4 µg/mL	4 µg/mL	4 µg/mL	4 µg/mL	> 640 µg/mL	> 80
CCCCCNC(=O)C[N+](C)(C)CCCCCn1c(-c2ccc(N(C)C)cc2)nc2c3ccccc3c3ccccc3c21.[Br-]	2 µg/mL	64 µg/mL	4 µg/mL	2 µg/mL	2 µg/mL	2 µg/mL	2 µg/mL	2 µg/mL	2 µg/mL	2 µg/mL	2 µg/mL	4 µg/mL	572 µg/mL	286
CCCNC(=O)C[N+](C)(C)CCCn1c(-c2ccc(N(C)C)cc2)nc2c3ccccc3c3ccccc3c21.[Br-]	32 µg/mL	> 128 µg/mL	64 µg/mL	32 µg/mL	64 µg/mL	32 µg/mL	64 µg/mL	64 µg/mL	32 µg/mL	64 µg/mL	32 µg/mL	64 µg/mL	> 640 µg/mL	> 20
CCCCCCNC(=O)C[N+](C)(C)CCCCCn1c(-c2ccc(N(C)C)cc2)nc2c3ccccc3c3ccccc3c21.[Br-]	2 µg/mL	64 µg/mL	8 µg/mL	4 µg/mL	2 µg/mL	1 µg/mL	8 µg/mL	2 µg/mL	1 µg/mL	2 µg/mL	4 µg/mL	8 µg/mL	442 µg/mL	221
CCN(CC)C(=O)C[N+](C)(C)CCCCCn1c(-c2ccc(N(C)C)cc2)nc2c3ccccc3c3ccccc3c21.[Br-]	16 µg/mL	128 µg/mL	8 µg/mL	8 µg/mL	8 µg/mL	8 µg/mL	8 µg/mL	8 µg/mL	8 µg/mL	8 µg/mL	8 µg/mL	8 µg/mL	1080 µg/mL	67.8
CN(C)c1ccc(-c2nc3c4ccccc4c4ccccc4c3n2CCCCC[N+](C)(C)CC(=O)N2CCSCC2)cc1.[Br-]	4 µg/mL	> 128 µg/mL	8 µg/mL	8 µg/mL	4 µg/mL	4 µg/mL	8 µg/mL	4 µg/mL	4 µg/mL	4 µg/mL	4 µg/mL	8 µg/mL	> 640 µg/mL	> 160
CCCN(CCC)C(=O)C[N+](C)(C)CCCCCn1c(-c2ccc(N(C)C)cc2)nc2c3ccccc3c3ccccc3c21.[Br-]	2 µg/mL	128 µg/mL	4 µg/mL	4 µg/mL	2 µg/mL	2 µg/mL	8 µg/mL	2 µg/mL	2 µg/mL	2 µg/mL	2 µg/mL	4 µg/mL	99.4 µg/mL	49.7
CCCNC(=O)C[N+](C)(C)CCCCCn1c(-c2ccc(N(C)C)cc2)nc2c3ccccc3c3ccccc3c21.[Br-]	8 µg/mL	64 µg/mL	8 µg/mL	8 µg/mL	4 µg/mL	4 µg/mL	8 µg/mL	8 µg/mL	4 µg/mL	4 µg/mL	4 µg/mL	8 µg/mL	735 µg/mL	91.9
CC(C)N(C(=O)C[N+](C)(C)CCCCCn1c(-c2ccc(N(C)C)cc2)nc2c3ccccc3c3ccccc3c21)C(C)C.[Br-]	4 µg/mL	> 128 µg/mL	4 µg/mL	4 µg/mL	4 µg/mL	4 µg/mL	4 µg/mL	4 µg/mL	4 µg/mL	2 µg/mL	4 µg/mL	4 µg/mL	688 µg/mL	167
CCNC(=O)C[N+](C)(C)CCCCCn1c(-c2ccc(N(C)C)cc2)nc2c3ccccc3c3ccccc3c21.[Br-]	16 µg/mL	128 µg/mL	32 µg/mL	32 µg/mL	32 µg/mL	32 µg/mL	32 µg/mL	32 µg/mL	16 µg/mL	32 µg/mL	32 µg/mL	32 µg/mL	> 640 µg/mL	> 40
CCN(CC)C(=O)C[N+](C)(C)CCCn1c(-c2ccc(N(C)C)cc2)nc2c3ccccc3c3ccccc3c21.[Br-]	64 µg/mL	> 128 µg/mL	64 µg/mL	64 µg/mL	64 µg/mL	64 µg/mL	64 µg/mL	128 µg/mL	64 µg/mL	128 µg/mL	64 µg/mL	64 µg/mL	> 640 µg/mL	> 10
C[C@@H](O)[C@H]1C(=O)N2C(C(=O)O)=C(S[C@@H]3CN[C@H](C(=O)N(C)C)C3)[C@H](C)[C@H]12 [MEROPENEM]		0.063 µg/mL (≈ 0.164 µM)												
CCCCCCNC(=O)C[N+](C)(C)CCCn1c(-c2ccc(N(C)C)cc2)nc2c3ccccc3c3ccccc3c21.[Br-]	64 µg/mL	> 128 µg/mL	64 µg/mL	128 µg/mL	64 µg/mL	64 µg/mL	64 µg/mL	128 µg/mL	64 µg/mL	128 µg/mL	64 µg/mL	64 µg/mL	> 640 µg/mL	> 10
CCN(CC)C(=O)C[N+](C)(C)CCCCn1c(-c2ccc(N(C)C)cc2)nc2c3ccccc3c3ccccc3c21.[Br-]	16 µg/mL	> 128 µg/mL	16 µg/mL	16 µg/mL	16 µg/mL	16 µg/mL	16 µg/mL	16 µg/mL	16 µg/mL	32 µg/mL	16 µg/mL	16 µg/mL	16 µg/mL	> 640
CC(C)CN(CC(C)C)C(=O)C[N+](C)(C)CCCCn1c(-c2ccc(N(C)C)cc2)nc2c3ccccc3c3ccccc3c21.[Br-]	2 µg/mL	64 µg/mL	2 µg/mL	2 µg/mL	1 µg/mL	1 µg/mL	2 µg/mL	1 µg/mL	1 µg/mL	2 µg/mL	2 µg/mL	2 µg/mL	158 µg/mL	> 79.1
CCCCN(CCCC)C(=O)C[N+](C)(C)CCCCCn1c(-c2ccc(N(C)C)cc2)nc2c3ccccc3c3ccccc3c21.[Br-]	1 µg/mL	> 128 µg/mL	4 µg/mL	1 µg/mL	1 µg/mL	1 µg/mL	2 µg/mL	1 µg/mL	1 µg/mL	1 µg/mL	1 µg/mL	4 µg/mL	225 µg/mL	225
O=C1C(=O)c2ccccc2-c2ccccc21 [9,10-PHENANTHRENEQUINONE]	4 µg/mL (≈ 19.2 µM)	> 64 µg/mL	2 µg/mL (≈ 9.61 µM)	4 µg/mL (≈ 19.2 µM)	4 µg/mL (≈ 19.2 µM)	4 µg/mL (≈ 19.2 µM)	4 µg/mL (≈ 19.2 µM)	4 µg/mL (≈ 19.2 µM)	4 µg/mL (≈ 19.2 µM)	2 µg/mL (≈ 9.61 µM)	8 µg/mL (≈ 38.4 µM)	2 µg/mL (≈ 9.61 µM)	> 320 µg/mL	> 80
CCCNC(=O)C[N+](C)(C)CCCCn1c(-c2ccc(N(C)C)cc2)nc2c3ccccc3c3ccccc3c21.[Br-]	8 µg/mL	64 µg/mL	16 µg/mL	8 µg/mL	8 µg/mL	8 µg/mL	16 µg/mL	8 µg/mL	4 µg/mL	4 µg/mL	8 µg/mL	16 µg/mL	290 µg/mL	36.3
CCCCCNC(=O)C[N+](C)(C)CCCCn1c(-c2ccccc2)nc2c3ccccc3c3ccccc3c21.[Br-]	4 µg/mL	32 µg/mL	2 µg/mL	4 µg/mL	4 µg/mL	2 µg/mL	2 µg/mL	2 µg/mL	2 µg/mL	2 µg/mL	2 µg/mL	2 µg/mL		
